Reference: patent publication US20240425490A1, “SULFAMIDE RIBONUCLEOTIDE REDUCTASE (RNR) INHIBITORS AND USES THEREOF” (Boundless Bio, Inc., priority 2021, published 2024)

Each compound was assayed against T1, RNR (RNR1:RNR2 1:1) (Homo sapiens, UniProt P23921) (assay: RNR enzyme activity, rapid-fire mass spectrometry (RFMS) assay). Conditions: RNR 50 nM, CDP 5 μM, ATP 1 mM, 37° C., 45 min, compounds screened up to 50 μM, read-out: RF/MS IC50.
T1 sequence (P23921 1-792): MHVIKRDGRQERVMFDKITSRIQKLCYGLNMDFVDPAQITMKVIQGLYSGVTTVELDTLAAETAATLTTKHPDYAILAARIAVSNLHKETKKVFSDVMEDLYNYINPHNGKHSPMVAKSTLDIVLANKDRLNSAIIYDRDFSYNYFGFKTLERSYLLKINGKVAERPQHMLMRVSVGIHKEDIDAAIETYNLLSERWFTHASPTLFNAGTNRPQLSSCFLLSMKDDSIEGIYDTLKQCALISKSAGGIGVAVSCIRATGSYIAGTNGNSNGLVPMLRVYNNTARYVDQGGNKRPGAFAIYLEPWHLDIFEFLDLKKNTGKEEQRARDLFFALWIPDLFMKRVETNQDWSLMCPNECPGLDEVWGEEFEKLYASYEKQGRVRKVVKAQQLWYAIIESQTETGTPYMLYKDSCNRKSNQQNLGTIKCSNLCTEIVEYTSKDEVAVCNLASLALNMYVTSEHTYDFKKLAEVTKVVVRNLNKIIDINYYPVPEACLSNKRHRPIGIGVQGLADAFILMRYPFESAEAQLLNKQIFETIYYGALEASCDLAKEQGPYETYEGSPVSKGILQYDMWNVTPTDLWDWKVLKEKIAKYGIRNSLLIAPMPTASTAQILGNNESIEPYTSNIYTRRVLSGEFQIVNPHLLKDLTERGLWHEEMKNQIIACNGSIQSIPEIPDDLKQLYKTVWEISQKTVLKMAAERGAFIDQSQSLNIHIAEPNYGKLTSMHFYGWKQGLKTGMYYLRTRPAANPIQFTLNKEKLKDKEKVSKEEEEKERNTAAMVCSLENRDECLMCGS
Type: biochemical
Experimental: A rapid-fire mass spectrometry (RFMS) assay was used to assess RNR enzyme activity using a 384 well plate and a robotic platform.
The plate layout included two validated reference compounds (Triapine (3-AP) and Hydroxyurea (HU)): • A dose response in duplicate; top concentration: 5 μM (3-AP) and 250 μM (HU), semi-log dilutions. • Spike wells in triplicate randomly spotted at four concentrations: • 250 μM, 100 μM, 30 μM and 2 μM for HU • 5 μM, 2 μM, 0.6 μM and 0.04 μM for 3-AP
First, the multidrop pipes were saturated for 30 minutes with enzymatic solution. Then 30 μL of Stop solution was distributed in column 24. Next, 15 μL of enzyme was distributed in column 1 to 24. Next, a pre-incubation step of 15 minutes at room temperature occurred, followed by distribution of 15 μL of substrate solution (column 1 to 24). Next, the plate was incubated for 45 minutes at 37° C. 30 μL of Stop solution was distributed to columns 1 to 23.
The final parameters for the enzyme reactions were: • Incubation: 37° C., 45 min • [CDP]: 5 μM; [ATP]: 1 mM; [NADPH]: No • [RNR] final: 50 nM with 1:1 (RNR1:RNR2) ratio • Final volume: 30 μL • Stop solution: 6% HCOOH containing 2 μM of 15

Row | Structure (SMILES) | IC50 [nM]
1 | Cc1ccc(F)c([C@H](C)[C@H](NS(=O)(=O)N2CCC3(CC2)OCCCO3)c2n[nH]c(=O)o2)c1C [Example 86, N-((1S,2S)-2-(6-fluoro-2,3-dimethylphenyl)-1-(5-oxo-4,5-dihydro-1,3,4-oxadiazol-2-yl)propyl)-1,5-dioxa-9-azaspiro[5.5]undecane-9-sulfonamide] | 1000 to 10000
2 | Cc1ccc(F)c([C@@H](C)[C@H](NS(=O)(=O)N2CCCc3ccccc32)c2n[nH]c(=O)o2)c1C [Example 109, N-((1S,2R)-2-(6-fluoro-2,3-dimethylphenyl)-1-(5-oxo-4,5-dihydro-1,3,4-oxadiazol-2-yl)propyl)-3,4-dihydroquinoline-1(2H)-sulfonamide] | 1000 to 10000
3 | Cc1ccc(F)c(C(C)[C@H](NS(=O)(=O)N2CCC(NC(=O)C(C)(C)C)CC2)c2n[nH]c(=O)o2)c1C (stereo partly drawn) [Example 75, N-(1-(N-((1S)-2-(6-fluoro-2,3-dimethylphenyl)-1-(5-oxo-4,5-dihydro-1,3,4-oxadiazol-2-yl)propyl)sulfamoyl)piperidin-4-yl)pivalamide] | 1000 to 10000
4 | Cc1ccc(F)c([C@H](C)[C@H](NS(=O)(=O)N2CC3C(C2)C3(C)C)c2n[nH]c(=O)o2)c1C (stereo partly drawn) [Example 103, N-((1S,2S)-2-(6-fluoro-2,3-dimethylphenyl)-1-(5-oxo-4,5-dihydro-1,3,4-oxadiazol-2-yl)propyl)-6,6-dimethyl-3-azabicyclo[3.1.0]hexane-3-sulfonamide] | 1000 to 10000
5 | Cc1ccc(F)c([C@H](C)[C@H](NS(=O)(=O)N2CCCCC2c2ccccc2)c2n[nH]c(=O)o2)c1C (stereo partly drawn) [Example 36, N-((1S,2S)-2-(6-fluoro-2,3-dimethylphenyl)-1-(5-oxo-4,5-dihydro-1,3,4-oxadiazol-2-yl)propyl)-2-phenylpiperidine-1-sulfonamide] | 10000 to 100000
6 | Cc1ccc(F)c([C@@H](C)[C@H](NS(=O)(=O)N2CC3CCCC(C3)C2)c2n[nH]c(=O)o2)c1C [Example 7, N-((1S,2R)-2-(6-fluoro-2,3-dimethylphenyl)-1-(5-oxo-4,5-dihydro-1,3,4-oxadiazol-2-yl)propyl)-3-azabicyclo[3.3.1]nonane-3-sulfonamide] | 10000 to 100000
7 | CC(=O)[C@H]1CCCCN1S(=O)(=O)N[C@H](c1n[nH]c(=O)o1)[C@H](C)c1c(F)ccc(C)c1C [Example 19, (R)-2-acetyl-N-((1S,2R)-2-(6-fluoro-2,3-dimethylphenyl)-1-(5-oxo-4,5-dihydro-1,3,4-oxadiazol-2-yl)propyl)piperidine-1-sulfonamide] | 1000 to 10000
8 | Cc1ccc(F)c([C@H](C)[C@H](NS(=O)(=O)N2CCC3(CCCCC3)CC2)c2n[nH]c(=O)o2)c1C [Example 88, N-((1S,2S)-2-(6-fluoro-2,3-dimethylphenyl)-1-(5-oxo-4,5-dihydro-1,3,4-oxadiazol-2-yl)propyl)-3-azaspiro[5.5]undecane-3-sulfonamide] | 1000 to 10000
9 | Cc1ccc(F)c([C@@H](C)[C@H](NS(=O)(=O)N2CCC3(CCNC3=O)CC2)c2n[nH]c(=O)o2)c1C [Example 59, N-((1S,2R)-2-(6-fluoro-2,3-dimethylphenyl)-1-(5-oxo-4,5-dihydro-1,3,4-oxadiazol-2-yl)propyl)-1-oxo-2,8-diazaspiro[4.5]decane-8-sulfonamide] | 10000 to 100000
10 | Cc1ccc(F)c(C(C)[C@H](NS(=O)(=O)N2CCC(C3CC3)CC2)c2n[nH]c(=O)o2)c1C (stereo partly drawn) [Example 49, 4-cyclopropyl-N-((1S)-2-(6-fluoro-2,3-dimethylphenyl)-1-(5-oxo-4,5-dihydro-1,3,4-oxadiazol-2-yl)propyl)piperidine-1-sulfonamide] | 1000 to 10000
11 | Cc1ccc(F)c([C@H](C)[C@H](NS(=O)(=O)N2CC3CC3C2)c2n[nH]c(=O)o2)c1C (stereo partly drawn) [Example 104, N-((1S,2S)-2-(6-fluoro-2,3-dimethylphenyl)-1-(5-oxo-4,5-dihydro-1,3,4-oxadiazol-2-yl)propyl)-3-azabicyclo[3.1.0]hexane-3-sulfonamide] | 10000 to 100000
12 | Cc1ccc(F)c([C@@H](C)[C@H](NS(=O)(=O)N2CCC(C)CC2C)c2n[nH]c(=O)o2)c1C (stereo partly drawn) [Example 8, N-((1S,2R)-2-(6-fluoro-2,3-dimethylphenyl)-1-(5-oxo-4,5-dihydro-1,3,4-oxadiazol-2-yl)propyl)-2,4-dimethylpiperidine-1-sulfonamide] | 1000 to 10000
13 | Cc1ccc(F)c([C@H](C)[C@H](NS(=O)(=O)N2CCCC(C(C)O)C2)c2n[nH]c(=O)o2)c1C (mixture of isomers) [Example 28, rac-N-((1R,2R)-2-(6-fluoro-2,3-dimethylphenyl)-1-(5-oxo-4,5-dihydro-1,3,4-oxadiazol-2-yl)propyl)-3-(1-hydroxyethyl)piperidine-1-sulfonamide] | 10000 to 100000
14 | CCN(CC1CC1)S(=O)(=O)N[C@H](c1n[nH]c(=O)o1)[C@@H](C)c1c(F)ccc(C)c1C [Example 120] | 10000 to 100000

The remaining lines, values ahead:

Row | IC50 [nM] | Structure (SMILES)
15 | 100 to 1000 | Cc1ccc(F)c(C(C)[C@H](NS(=O)(=O)N2CCC(Cl)(Cl)C(C)C2)c2n[nH]c(=O)o2)c1C (stereo partly drawn) [Example 99, 4,4-dichloro-N-((1S)-2-(6-fluoro-2,3-dimethylphenyl)-1-(5-oxo-4,5-dihydro-1,3,4-oxadiazol-2-yl)propyl)-3-methylpiperidine-1-sulfonamide]
16 | 100 to 1000 | Cc1ccc(F)c([C@@H](C)[C@H](NS(=O)(=O)N2CCC(Oc3ccccc3)CC2)c2n[nH]c(=O)o2)c1C [Example 55, N-((1S,2R)-2-(6-fluoro-2,3-dimethylphenyl)-1-(5-oxo-4,5-dihydro-1,3,4-oxadiazol-2-yl)propyl)-4-phenoxypiperidine-1-sulfonamide]
17 | 100 to 1000 | Cc1ccc(F)c(C(C)[C@H](NS(=O)(=O)N2CCC(C#N)CC2)c2n[nH]c(=O)o2)c1C (stereo partly drawn) [Example 123, 4-cyano-N-((1S)-2-(6-fluoro-2,3-dimethylphenyl)-1-(5-oxo-4,5-dihydro-1,3,4-oxadiazol-2-yl)propyl)piperidine-1-sulfonamide]
18 | 100 to 1000 | COC(=O)C1(C)CCN(S(=O)(=O)N[C@H](c2n[nH]c(=O)o2)[C@H](C)c2c(F)ccc(C)c2C)CC1 [Example 78, methyl 1-(N-((1S,2R)-2-(6-fluoro-2,3-dimethylphenyl)-1-(5-oxo-4,5-dihydro-1,3,4-oxadiazol-2-yl)propyl)sulfamoyl)-4-methylpiperidine-4-carboxylate]
19 | 100 to 1000 | Cc1ccc(F)c([C@@H](C)[C@H](NS(=O)(=O)N2CCC3(CCCC3)CC2)c2n[nH]c(=O)o2)c1C [Example 71, N-((1S,2R)-2-(6-fluoro-2,3-dimethylphenyl)-1-(5-oxo-4,5-dihydro-1,3,4-oxadiazol-2-yl)propyl)-8-azaspiro[4.5]decane-8-sulfonamide]
20 | 100 to 1000 | COCC1CCN(S(=O)(=O)N[C@H](c2n[nH]c(=O)o2)[C@H](C)c2c(F)ccc(C)c2C)CC1 [Example 127, N-((1S,2R)-2-(6-fluoro-2,3-dimethylphenyl)-1-(5-oxo-4,5-dihydro-1,3,4-oxadiazol-2-yl)propyl)-4-(methoxymethyl)piperidine-1-sulfonamide]
21 | 100 to 1000 | Cc1ccc(F)c(C(C)[C@H](NS(=O)(=O)N2CCC3(CCOCC3)CC2)c2n[nH]c(=O)o2)c1C (stereo partly drawn) [Example 91, N-((1S)-2-(6-fluoro-2,3-dimethylphenyl)-1-(5-oxo-4,5-dihydro-1,3,4-oxadiazol-2-yl)propyl)-3-oxa-9-azaspiro[5.5]undecane-9-sulfonamide]
22 | 100 to 1000 | Cc1ccc(F)c([C@@H](C)[C@H](NS(=O)(=O)N2CCC(F)(F)CC2)c2n[nH]c(=O)o2)c1C [Example 1, 4,4-difluoro-N-((1S,2R)-2-(6-fluoro-2,3-dimethylphenyl)-1-(5-oxo-4,5-dihydro-1,3,4-oxadiazol-2-yl)propyl)piperidine-1-sulfonamide]
23 | 100 to 1000 | Cc1ccc(F)c([C@@H](C)[C@H](NS(=O)(=O)N2CCc3cc(Cl)ccc3C2)c2n[nH]c(=O)o2)c1C [Example 107, 6-chloro-N-((1S,2R)-2-(6-fluoro-2,3-dimethylphenyl)-1-(5-oxo-4,5-dihydro-1,3,4-oxadiazol-2-yl)propyl)-3,4-dihydroisoquinoline-2(1H)-sulfonamide]
